The subject of this assay is Plasmodium falciparum Dd2 asexual blood stage parasites. Nature of the assay: microbe, parasite or virus in culture. On the set-up: species or system Plasmodium falciparum Dd2 in human erythrocytes; single determination (one 11-point concentration-response curve). Particulars: Plasmodium falciparum, DD2, Erythrocyte, 72 h; read-out: AC50.

From paper PMC7822874, “Chemoprotective antimalarials identified through quantitative high-throughput screening of Plasmodium blood and liver stage parasites” (Scientific Reports, 2021) come the findings set out here.

Take `Cc1cc(Nc2ccc(C(C)C)cc2)n2ncnc2n1` [MLS000116597-01]: the concentration at half-maximal activity (AC50) is 4.22 µM.

As to `CCC(CC)c1cc([C@H]2CN3CC[C@H]2C[C@@H]3CNC(=O)c2ccc(C)cc2)nc(-c2ccncc2)n1` [NCGC00400216-01], the AC50 worked out at 10.6 µM.

On to `CC1CC(C)CN(C(=O)c2ccc3ccccc3c2)C1` (centres unmarked) [MLS001161774-01], for which the AC50 is 2.37 µM.

On to `O=c1oc2c(CN3CCOCC3)c(O)ccc2cc1-c1ccccc1` [NCGC00135757-01], for which the AC50 amounted to 9.44 µM.

`O=[S+]([O-])(c1ccccc1)N1CC(CNc2cccnc2)C2(CN(c3ccccc3)C2)C1` (centres unmarked) [NCGC00415961-01]: the AC50 amounted to 21.7 µM.

As to `O=C(NCCCN1CCc2ccccc2C1)C1Cn2cccc2C(=O)N1Cc1ccccc1` (centres unmarked) [NCGC00456658-01], the AC50 was 9.44 µM.

As to `O=C1N=C(NC2CCCCC2)C2(CCN(Cc3ccccc3)C2)N1c1cc(F)cc(F)c1` (centres unmarked) [NCGC00374188-01], the AC50 was 4.22 µM.

With `COc1ccccc1CN1CCOCC2(C1)CN([S+](=O)([O-])c1ccccc1)C2` [NCGC00419002-01], the AC50 stood at 12.2 µM.

With `N#Cc1nn(-c2c(Cl)cc(C(F)(F)F)cc2Cl)c(N)c1[S+]([O-])C(F)(F)F` (centres unmarked) [NCGC00094574-06], the AC50 is 9.44 µM.

Turning to `Cc1cc2cc(-c3c(C)noc3C)nc(N(C)CCN(C)C)c2o1` [NCGC00417474-01], the concentration at half-maximal activity (AC50) worked out at 12.2 µM.

Take `COc1ccccc1-c1cc(C(=O)N2CCN(S(=O)(=O)c3ccc(C)cc3)CC2)[nH]n1` [MLS000924750-01]: the AC50 amounted to 7.5 µM.

For `Cc1cn2nc(C(=O)Nc3ccc(N(C)C)cc3)cc2c(N(C)Cc2ccccc2)n1` [NCGC00454159-01], the AC50 was 15 µM.

Take `COc1ccc(C)cc1NCc1cc(=O)oc2cc(-c3ccccc3)c(O)cc12` [MLS000331048-01]: the AC50 is 5.31 µM.

Turning to `CC(C)(C)c1ccc(-c2noc(-c3ncn4c3COC(c3ccc(F)cc3)C4)n2)cc1` (centres unmarked) [NCGC00449976-01], the AC50 worked out at 15 µM.

Regarding `COc1cc2c(cc1Oc1ccccc1)NC(=O)C21CCN(c2cnccn2)CC1` [NCGC00416813-01], the AC50 was 2.17 µM.

On to `CN1CCC2(CC1)CN(C(=O)CCc1ccccc1)Cc1ccccc1O2` [NCGC00456463-01], for which the AC50 amounted to 6.68 µM.

As to `Cc1ccccc1Oc1nc(-c2ccccn2)nc2ccccc12` [MLS000769500-01], the AC50 stood at 6.68 µM.

Consider `COc1ccc(-c2cc3ccc(O)c(CN4CCCC(C)C4)c3oc2=O)cc1` (centres unmarked) [NCGC00134281-01], for which the AC50 is 2.37 µM.

For `CC(Oc1ccc(F)cc1)C(=O)Nc1cc(Cl)ccc1-n1cncn1` (centres unmarked) [MLS001157608-01], the AC50 came to 6.68 µM.

For the compound `COc1ccccc1N1CCN(C(=O)c2ccc3c(c2)N(Cc2cc(C)ccc2C)C(=O)c2ccccc2[S+]3(=O)[O-])CC1` [NCGC00109735-01], the AC50 is 9.44 µM.

`COC[C@H]1CCCN1[C@@H]1[C@H](O)[C@H](CO)O[C@@H]1CN(Cc1cccc(Cl)c1)Cc1cccc(Cl)c1` [NCGC00391669-01]: the AC50 amounted to 10.6 µM.

Consider `COc1ccccc1CNC(=O)[C@@H](C)C1CC[C@@]2(C)CC[C@H](NC(=O)c3cncnc3)[C@@H](C)[C@@H]2[C@H]1O` (some centres unmarked) [NCGC00395379-01], for which the AC50 is 2.37 µM.

As for `CC(C)N1CCC2(CC1)CN(C(=O)Cc1cccc(F)c1)Cc1ccccc1O2` [NCGC00456475-01], the AC50 turned out to be 15 µM.

Turning to `CCc1ccc(-c2nn(CC(=O)NC3CCCCC3)c3c2cnc2ccc(OC)cc23)cc1` [NCGC00130391-01], the AC50 amounted to 9.44 µM.

On to `CCOC(=O)C1=Nc2ccccc2C1=[N+]=[N-]` [MLS000079382-01], for which the concentration at half-maximal activity (AC50) is 4.22 µM.

For the compound `COC1CN(c2ccc(C)cc2)C12CCN(C(=O)CCc1nc3ccccc3s1)CC2` (centres unmarked) [NCGC00465628-01], the AC50 turned out to be 10.6 µM.

Take `Cc1nn(-c2ccccc2)c2c1C(c1cccnc1)N1C=C(S(=O)(=O)N3CCCCC3)C=CC1=N2` (centres unmarked) [MLS000863363-01]: the AC50 turned out to be 15 µM.

Consider `CCOc1ccccc1C(=O)N1CC(=O)Nc2ccc(Cl)cc2C1c1ccccc1` (centres unmarked) [NCGC00103922-01], for which the AC50 is 9.44 µM.

For `COc1ccc(/C=C\c2onc(C)c2[S+](=O)([O-])N2CCC(C(=O)Nc3ccc(C)cc3C)CC2)cc1` [NCGC00109197-01], the AC50 worked out at 0.841 µM.

For `COCCN1Cc2ccc(NCC(C)C)nc2C(C)(C(=O)Nc2ccncc2)C1` (centres unmarked) [NCGC00414482-01], the concentration at half-maximal activity (AC50) was 21.7 µM.

With `CCCCn1c(NS(=O)(=O)c2ccccc2)c(C(=O)OCC)c2nc3ccccc3nc21` [MLS000589117-01], the AC50 was found to be 10.6 µM.

Consider `CCC(=O)Nc1ccc2nnc(-c3ccc(C(=O)Nc4ccc5c(c4)OCCO5)cc3)n2c1` [NCGC00429833-01], for which the AC50 was 7.5 µM.

On to `Cc1ccccc1-n1c(=C(C#N)C(=O)Nc2ccccc2)sc(=Cc2ccco2)c1=O` [MLS000081502-01], for which the AC50 was 5.31 µM.

Turning to `COc1ccc2nc3oc(C(=O)N4CC(C)CC(C)C4)cc3cc2c1` (centres unmarked) [MLS000912759-01], the half-maximal activity concentration (AC50) amounted to 8.41 µM.

With `COC(=O)[C@H](Cc1ccc(OC)cc1)NC(=O)[C@H]1CN(C(=O)c2ccc(N(C)C)cc2)CCN1C(=O)c1cccs1` [NCGC00398661-01], the AC50 turned out to be 0.188 µM.

Consider `CCc1cccc(C)c1NC(=O)CN1CCN(S(=O)(=O)c2ccc(C(C)(C)C)cc2)CC1` [MLS001070982-01], for which the AC50 came to 8.41 µM.

Regarding `COc1ccc(CCn2c(=N)c(C(=O)NCc3ccco3)cc3c(=O)n4cccc(C)c4nc32)cc1` [MLS000040240-01], the AC50 was 1.68 µM.

As to `Cc1ccc(Cl)cc1N1CCN(C(=O)c2ccc3c(c2)N(Cc2ccccc2F)C(=O)c2ccccc2[S+]3(=O)[O-])CC1` [NCGC00109582-01], the AC50 was 5.31 µM.

`CCCNC(=O)N1CC(Oc2cccc(-c3nc(-c4ccccc4)no3)c2)C1` [NCGC00441277-01]: the AC50 is 13.3 µM.

As for `Cc1ccc([S+](=O)([O-])N[C@@H]2CN(C)C[C@H]2CN(C)C)cc1F` [NCGC00462728-01], the AC50 was 15 µM.

Consider `CCC(C)c1ccc(N(C(=O)c2ccco2)C(C(=O)NC2CCCC2)c2cccnc2)cc1` (centres unmarked) [MLS001222477-01], for which the AC50 is 6.68 µM.

In the case of `O=C(NCC(c1ccco1)N1CCCC1)c1ccc(Cl)cc1` (centres unmarked) [MLS000570686-01], the AC50 was 8.41 µM.

`O=C(Cc1ccc(Cl)cc1)NCc1nnc2cc(-c3nc(C4CC4)no3)ccn12` [NCGC00457746-01]: the AC50 stood at 7.5 µM.

On to `CCOC(=O)c1ccccc1NC(=O)c1cn(CC(C)C)c(=O)c2cc(OC)c(OC)cc12` [NCGC00104537-01], for which the AC50 came out at 8.41 µM.

On to `COc1cccc(CN2CCC3(CC2)OC(=O)N(Cc2ccccc2)C3(C)c2ccccc2)c1` (centres unmarked) [NCGC00415605-01], for which the AC50 was determined as 15 µM.

Take `CCOC(=O)c1c(CN(CC)CC)n(C)c2cc(Br)c(O)cc12` [MLS000778381-01]: the AC50 came to 9.44 µM.

On to `Cc1oc2ccc(O)c(CN3CCCC(C)C3)c2c1C(=O)Nc1ccccc1` (centres unmarked) [NCGC00115528-01], for which the AC50 worked out at 2.11 µM.

Turning to `CC(C)Cn1c(-c2ccco2)nc2c(c(=O)c3ccccc3n2C)c1=O` [MLS000331990-01], the AC50 was determined as 9.44 µM.

As to `COc1ccc(C2=[N+](C)CCn3cccc32)c(OC)c1` [MLS000705896-01], the AC50 turned out to be 10.6 µM.

On to `CCOC(=O)N1CCN(C(=O)c2ccc3c(c2)N(C)C(=O)/C(=C\c2ccc(OCC)c(OC)c2)S3)CC1` [MLS001030648-01], for which the half-maximal activity concentration (AC50) was 6.68 µM.

In the case of `O[C@@H]1C[C@@](CNCC2CCCC2)(COc2ccc(C(F)(F)F)cn2)C[C@@H]1O` [NCGC00393440-01], the AC50 is 5.31 µM.

Turning to `Cc1cc(Oc2c(C(F)(F)F)oc3c(CN4CCC(C)CC4)c(O)ccc3c2=O)cc(C)c1Cl` [NCGC00101140-01], the AC50 was 0.75 µM.

As to `O=[N+]([O-])c1ccc([S+](=O)([O-])N2CCn3cccc3C2c2ccc(Br)cc2)cc1` (centres unmarked) [NCGC00137374-01], the AC50 is 5.96 µM.

`Fc1ccc(N2CCN(Cc3cccn3-c3nnc(N4CCN(C5CCCCC5)CC4)s3)CC2)cc1` [NCGC00127052-01]: the AC50 was determined as 11.9 µM.

Regarding `CC(=O)c1ccc(N2CCN(c3nc4c([S+](=O)([O-])c5ccccc5)nnn4c4ccc(Cl)cc34)CC2)cc1` [NCGC00112340-01], the half-maximal activity concentration (AC50) was 3.35 µM.

On to `Cc1ccc(C(=O)N/N=C/c2ccc([N+](=O)[O-])s2)cc1` [MLS000519463-01], for which the AC50 stood at 5.96 µM.

As for `Cc1cc(NCc2ccco2)nc2cc(O)ccc12` [MLS000118315-01], the AC50 was determined as 6.68 µM.

Consider `CCCN(CCC)CC(O)Cn1cc(/C=C/C(=O)c2ccc(C)cc2)c2ccccc21` (centres unmarked) [NCGC00114909-01], for which the half-maximal activity concentration (AC50) was 4.73 µM.

For the compound `CCN(CC)CCNC(=O)C12CCCC=C1N(Cc1ccccc1)C(=O)CC2` (centres unmarked) [NCGC00472142-01], the AC50 is 8.41 µM.

On to `Cc1noc(C)c1-c1cc2cc(CN(C)C)oc2c(Nc2cccnc2)n1` [NCGC00417472-01], for which the AC50 was 12.2 µM.

For the compound `CC1=C(C(=O)Nc2ccccc2)C(c2cc(Br)ccc2F)n2ncc(C(=O)Nc3ccccc3)c2N1` (centres unmarked) [NCGC00126266-01], the AC50 was determined as 1.68 µM.

Turning to `COC(=O)[C@H](Cc1ccc(OC)cc1)NC(=O)[C@H]1CN(C(=O)c2ccc(N(C)C)cc2)CCN1C(=O)C1CCCCC1` [NCGC00398660-01], the AC50 is 0.668 µM.

As for `COc1cc2c(cc1OC)C(COc1ccc3c(C)cc(=O)oc3c1)N(C(=O)Cc1ccc(F)cc1)CC2` (centres unmarked) [NCGC00104919-01], the AC50 turned out to be 5.96 µM.

On to `Cc1cc(Nc2ccc(C)c(C)c2)n2nc(C)nc2n1` [MLS000116616-01], for which the concentration at half-maximal activity (AC50) came out at 4.73 µM.

As for `Cc1nn(CCC(=O)N[C@H]2CC[C@H]2NC2CCCCC2)c(C)c1C` [NCGC00442733-01], the AC50 was found to be 6.68 µM.

As for `CCOC(=O)c1ccc(Nc2nc(N)c3cc(OC)c(OC)cc3n2)cc1` [NCGC00107259-01], the AC50 was found to be 1.88 µM.

In the case of `Cc1ccc2c(C)c(C(=O)N3CCCC3c3nc(C(C)C)no3)oc2c1C` (centres unmarked) [NCGC00435047-01], the AC50 amounted to 6.68 µM.

On to `CCCCOc1ccc(NC2=NC(N)=NC3(CCCCC3)N2)cc1` [MLS000109806-01], for which the AC50 stood at 8.41 µM.

Consider `COc1ccc(C(C)NC(S)=NC2CCCC2)cc1OC` (centres unmarked) [MLS000581238-01], for which the AC50 was determined as 6.68 µM.

In the case of `Cc1noc2c(NC3CCN(C)CC3)cc(-c3cccc(C(F)(F)F)c3)nc12` [NCGC00411487-01], the AC50 was found to be 13.7 µM.

As to `COC(=O)C1=C(c2ccc(OC)c(OC)c2)C[C@@H]2CC[C@H]1N2C(=O)NCc1cccc2ccccc12` [MLS002302726-01], the AC50 worked out at 3.35 µM.
